Data reported in patent US20190328670A1, “Microparticles for Oral Delivery” (Intervet Inc., priority 2004, published 2019).

Assay: Oral bioavailability in rats compared with conventional formulations
Type: in vivo
Procedure: Glyceryl tricaprylate and tricaprate mixture solutions containing these drugs are admixed in complex slurry according to Example 1 and recovered as free-flowing powders as in Example 2. […] Oral bioavailability is tested in rats and compared with those from other conventional formulations.
A soy oil solution containing 100 parts per million of triclosan is admixed in a complex slurry containing 100 parts per million of chlorhexidine according to Example 1. Microbeads are then produced and recovered as free-flowing powders as in Example 2. […] Oral bioavailability is tested in rats and compared with those from other conventional formulations.

## [H]/N=C(\N/C(=N/[H])NCCCCCCNC(=N)NC(=N)Nc1ccc(Cl)cc1)Nc1ccc(Cl)cc1 [chlorhexidine]
rat, in vivo, po
  Gastrointestinal absorption: more efficient

## Oc1cc(Cl)ccc1Oc1ccc(Cl)cc1Cl [triclosan]
rats, oral, from the microbeads/microcapsules versus powders, granules, or oil solution
  Gastrointestinal absorption: more efficient
